Source: article PMC8482766 (Journal of Medicinal Chemistry, 2021)
Converted amounts (≈) assume the structure as drawn. Where two headings read alike, the source gives them in different places.

What was measured:
[1] = Thermodynamic solubility at pH 6.8; format: physicochemical
[2] = tested on: KINOMEscan panel (DiscoverX) of >400 wild-type human kinases; format: binding; conditions: inhibitor concentration = 1 μM
[3] = In vivo pharmacokinetic study, i.v. in Sprague–Dawley rats; conditions: 1 mg/kg i.v.
P-gp (human MDR1) = experiment: MDCK-MDR1 permeability and P-gp efflux assay; format: in vitro ADME, canine; conditions: dog, MDCK-MDR1
[4] = tested on: Madin–Darby canine kidney cells transfected with the human MDR1 gene (MDCK-MDR1); experiment: MDCK-MDR1 permeability and P-gp efflux assay; format: in vitro ADME; conditions: MDCK-MDR1, conclusion in words
DYRK1A [5] = target: T1, DYRK1A (Homo sapiens, UniProt Q13627); format: binding; conditions: for LE: LE = 1.4(pIC50)/nonhydrogen atoms; for LLE: LLE = pIC50 – clog P
[6] = tested on: in-house panel of 48 representative kinases; format: binding
DYRK1A [7] = target: T1, DYRK1A; format: binding; conditions: SPR, dissociation rate (off-rate)
[8] = relative to reference compound/matched-molecular pair 11

Cc1cccc(N(C)c2nccc(-c3cnn4ncccc34)n2)c1 [Compound 8b]
solubility [1]: 10 µg/mL (≈ 31.6 µM)

CN(C)c1nccc(-c2cnn3ncccc23)n1 [Compound 11, N,N-Dimethyl-4-pyrazolo[1,5-b]pyridazin-3-yl-pyrimidin-2-amine]
S score (35) [2]: 0.027 | adverse effects [3]: no adverse effects reported | Papp A→B (P-gp (human MDR1)): 71.4 ± 0.65 ×10⁻⁶ cm/s | Papp B→A (P-gp (human MDR1)): 58.7 ± 1.45 ×10⁻⁶ cm/s | P-gp substrate [4]: not a P-gp substrate

CN(c1nccc(-c2cnn3ncccc23)n1)C1CC1 [Compound 12, N-Cyclopropyl-N-methyl-4-pyrazolo[1,5-b]pyridazin-3-yl-pyrimidin-2-amine]
S score (35) [2]: 0.013

CC(C)N(c1nccc(-c2cnn3ncccc23)n1)C1CC1 [Compound 13]
fold reduction in DYRK1A binding affinity (DYRK1A [5]; matched-molecular pairs 12 and 13): 10 fold

c1cnn2ncc(-c3ccnc(N4CCC45COC5)n3)c2c1 [Compound 22, 1-(4-Pyrazolo[1,5-b]pyridazin-3-yl-pyrimidin-2-yl)-6-oxa-1-azaspiro[3.3]heptane]
S score (35) [2]: 0.042

CC1CCCN1c1nccc(-c2cnn3ncccc23)n1 (stereo not shown) [Compound 24, 3-[2-(2-Methylpyrrolidin-1-yl)pyrimidin-4-yl]pyrazolo[1,5-b]pyridazine]
S score (35) [2]: 0.004

C[C@H]1CCN(c2nccc(-c3cnn4ncccc34)n2)C1 [Compound 28, 3-[2-[(3S)-3-Methylpyrrolidin-1-yl]pyrimidin-4-yl]pyrazolo[1,5-b]pyridazine]
S score (35) [2]: 0.050

C[C@@H]1CCN(c2nccc(-c3cnn4ncccc34)n2)C1 [Compound 29, 3-[2-[(3R)-3-Methylpyrrolidin-1-yl]pyrimidin-4-yl]pyrazolo[1,5-b]pyridazine]
S score (35) [2]: 0.035

F[C@@H]1CCN(c2nccc(-c3cnn4ncccc34)n2)C1 [Compound 31, 3-[2-[(3R)-3-Fluoropyrrolidin-1-yl]pyrimidin-4-yl]pyrazolo[1,5-b]pyridazine]
S score (35) [2]: 0.011

N[C@H]1CCN(c2nccc(-c3cnn4ncccc34)n2)C1 [Compound 33, (3S)-1-(4-pyrazolo[1,5-b]pyridazin-3-yl-pyrimidin-2-yl)pyrrolidin-3-amine]
S score (35) [2]: 0.027

Cc1nn2ncccc2c1-c1ccnc(N(C)C)n1 [Compound 60]
DYRK1A binding affinity (in words) (DYRK1A [5]; TR-FRET assay): no binding affinity

Cc1ccc2c(-c3ccnc(N(C)C)n3)cnn2n1 [Compound 62]
fold reduction in DYRK1A binding affinity (DYRK1A [5]; [8]): > 10 fold

Cc1cnn2ncc(-c3ccnc(N(C)C)n3)c2c1 [Compound 63, N,N-Dimethyl-4-(5-methylpyrazolo[1,5-b]pyridazin-3-yl)pyrimidin-2-amine]
S score (35) [2]: 0.027

Cc1ccnn2ncc(-c3ccnc(N(C)C)n3)c12 [Compound 64]
fold reduction in DYRK1A binding affinity (DYRK1A [5]; [8]): ~10 fold

COc1ccc2c(-c3ccnc(N(C)C)n3)cnn2n1 [Compound 65]
fold reduction in DYRK1A binding affinity (DYRK1A [5]; [8]): > 10 fold

COc1ccnn2ncc(-c3ccnc(N(C)C)n3)c12 [Compound 66, 4-(4-Methoxypyrazolo[1,5-b]pyridazin-3-yl)-N,N-dimethyl-pyrimidin-2-amine]
fold reduction in DYRK1A binding affinity (DYRK1A [5]; [8]): ~2 fold

CN(C)c1nccc(-c2c[nH]c3ncccc23)n1 [Compound 78]
selectivity by thermal stabilization (in words) [6]: cross-reacted with several additional kinases including the NAK kinases AAK1 and BMP2K

CN(C)c1ncc(F)c(-c2cnn3ncccc23)n1 [Compound 95, 5-Fluoro-N,N-dimethyl-4-pyrazolo[1,5-b]pyridazin-3-yl-pyrimidin-2-amine]
kd (DYRK1A [7]): 0.06 s^–1

CN(C)c1cccc(-c2cnn3ncccc23)n1 [Compound 111]
LE (DYRK1A [5]): 0.47 | LLE (DYRK1A [5]): 3.79 | fold reduction in DYRK1A binding affinity (DYRK1A [5]; [8]): approximately 10 fold

CN(C)c1cc(-c2cnn3ncccc23)ccn1 [Compound 113]
LE (DYRK1A [5]): 0.48 | LLE (DYRK1A [5]): 4.31 | fold reduction in DYRK1A binding affinity (DYRK1A [5]; [8]): 10 fold
